In paper PMC9818021, “Targets, Mechanisms and Cytotoxicity of Half-Sandwich Ir(III) Complexes Are Modulated by Structural Modifications on the Benzazole Ancillary Ligand” (Cancers, 2022):
Entries after “also recorded” stand apart in the source; their conditions may differ.

Tests used:
[1] = tested on: A2780cis (ovarian, acquired resistance to cisplatin); test: MTT cytotoxicity assay; type: cell-based, human; conditions: 48 h; for IC50: A2780cis
Protocol: (§1) Cell culture. Epithelial ovarian carcinoma cells (A2780) that acquired resistance to cisplatin epithelial ovarian carcinoma cells (A2780cis), colon adenocarcinoma cells (SW480) and epithelial lung adenocarcinoma cells (A549) were provided by Sigma Aldrich. A549 and SW480 cells were grown in Dulbecco′s Modified Eagle′s Medium (DMEM), supplemented with 10% Fetal Bovine Serum (FBS) and 1% penicillin, streptomycin and 1% glutamine for A549 and 1% amphotericin B for SW480. The A2780 and A2780cis were grown in RPMI 1640 supplemented with 10% Fetal Bovine Serum (FBS), 1% glutamine and 1% penicillin, streptomycin and amphotericin B. All cells were incubated in a humidified incubator at 37 °C under a 5% CO2 atmosphere and grown in 100 mm culture dishes to approximately 70–80% confluence. For subculturing, cells were detached with Trypsin-EDTA (Sigma). A549-gal were derived from A549 cultured in glucose-free medium supplemented with 10 mM galactose (Sigma) for at least 10 passes.
(§2) Cytotoxicity. MTT Assay and IC50 estimation. The cytotoxicity of 1[C,NH-Cl], 2[C,NMe-Cl], 3[N,NH-Cl]Cl, 4[N,NMe-Cl]Cl, 5[CNH2,NH-Cl]Cl, 6[CNH2,S-Cl]Cl, 7[CO,NH-Cl] and 8[CO,S-Cl] in A2780, A2780cis, SW480 and A549 carcinoma cells was evaluated by the MTT colorimetric assay. Cells were seeded in 96-well plates at 5000 cells per well and incubated at 37 °C, 5% CO2. After 24 h, the medium was removed and replaced with fresh medium with different concentrations of the compounds under study, and they were incubated for 48 h. Final DMSO concentration was kept below 0.7% in wells. For a negative control, one sequence of cells was left untreated and for vehicle control, cells treated with DMSO were included. For cell viability experiments preincubating with NAC (N-Acetyl-L-Cysteine), the cells were pre-treated with NAC, 10 mM for 2 h before the incubation with complex 1[C,NH-Cl] for 24 h. Then, the medium was removed from the wells, and 100 µL MTT (5 mg/mL) was added. After an incubation time of 4 h, 100 μL of solubilizing detergent solution (SDS, 10% in HCL 0.01 M) was added and kept in the incubator overnight. Cell growth inhibition was detected by measuring the absorbance of each well at 595 nm using a BioTek Cytation5 microplate reader. Each test was repeated in quadruplicate in three independent experiments for each cell line. The percentage of survival cells was calculated using absorbance measurements compared with control and the IC50 estimation using Graph Pad Prism version 6.01.

[2] = tested on: SW480 (colon adenocarcinoma cells); test: MTT cytotoxicity assay; type: cell-based, human; conditions: SW480, 48 h
Protocol: as §1, §2

[3] = tested on: A549 (epithelial lung adenocarcinoma cells); test: MTT cytotoxicity assay; type: cell-based, human; conditions: A549, 48 h
Protocol: as §1, §2

Qualitative solubility = type: physicochemical; conditions: 1-2 mg, solvent up to 1 mL
Protocol: Solubility. The solubility of the complexes was qualitatively assessed. Different solvents were added drop-by-drop while shaking to a small amount of complex (around 1–2 mg) in a vial until the solvent added exceeded 1 mL. Afterwards, it was checked if the solid was or not completely dissolved and/or if the solution got coloured.

Calf thymus DNA = test: DNA viscosity measurements; type: binding; conditions: as a function of CD/CP, overnight incubation
Protocol: Viscosity measurements were performed using a Micro-Ubbelohde viscometer whose temperature was controlled externally (25 ± 0.1 °C). The flow time was measured with a digital stopwatch. Mean values of triplicated measurements were taken to evaluate the DNA viscosity in the absence (η0) and in the presence, (η) of iridium complexes. The viscosity readings were expressed as L/L0 = (η/η0)^1/3 versus the CD/CP ratio. The data was analysed using […] where t0 and tDNA are the buffer and polynucleotide solution flow times, respectively, whereas t is the flow time of the Ir-complex/DNA mixture after the stabilization period.

[4] = tested on: ROS (superoxide anion, hydrogen peroxide); test: ROS generation (DHE and H2DCFDA, flow cytometry); type: cell-based; conditions: after 3 h
Protocol: Specific assays with 1[C,NH] complex were performed according to manufacturer’s instructions using the following reagents from Molecular Probes (Thermo Fisher Scientific): Measurements of ROS: Dihydroethidium (DHE, D11347) and 2′, 7′-dichlorodihydrofluorescein diacetate (H2DCFDA, D399); detection of caspases 3/7: CellEvent Caspase-3/7 Green Detection Reagent (C10423); Cell viability: Live/Dead Cell Imaging Kit (R37601); Analysis of cytosolic calcium concentration: Fluo3/AM (F23915); Analysis of MMP: Tetramethylrhodamine methyl ester perchlorate (TMRM, T668). RT-qPCR’s assays were performed with the following primers/probes from Thermo Fisher Scientific: DCP1A (Hs00218198-m1), FOSB (Hs00171851-m1), EGR1(Hs0015928-m1), ATF3 (Hs00231069-m1), DDIT3 (Hs00358796-g1), PP1R15A (Hs00169585-m1), CHAC1(Hs00225520-m1), MIR9-1 (Hs04231512-s1), ATP1B2 (Hs00155922-m1), BBC3 (Hs00248075-m1), BCL2L11 (Hs00798019-s1), PMAIP1 (Hs00560402-m1), SKP2 (Hs01021864-m1) and HIST1H1B (Hs00271207-s1). RT-qPCR experiments were performed as described.

BSA = target: T1, BSA (Bos taurus, UniProt P02769); test: Native PAGE of BSA with iridium complexes; type: binding, bovine; conditions: BSA 3 µM, CD/CP = 10, overnight
T1 construct: purchased Merck Life Science S.L.U., Madrid, Spain
T1 sequence (P02769 25-607): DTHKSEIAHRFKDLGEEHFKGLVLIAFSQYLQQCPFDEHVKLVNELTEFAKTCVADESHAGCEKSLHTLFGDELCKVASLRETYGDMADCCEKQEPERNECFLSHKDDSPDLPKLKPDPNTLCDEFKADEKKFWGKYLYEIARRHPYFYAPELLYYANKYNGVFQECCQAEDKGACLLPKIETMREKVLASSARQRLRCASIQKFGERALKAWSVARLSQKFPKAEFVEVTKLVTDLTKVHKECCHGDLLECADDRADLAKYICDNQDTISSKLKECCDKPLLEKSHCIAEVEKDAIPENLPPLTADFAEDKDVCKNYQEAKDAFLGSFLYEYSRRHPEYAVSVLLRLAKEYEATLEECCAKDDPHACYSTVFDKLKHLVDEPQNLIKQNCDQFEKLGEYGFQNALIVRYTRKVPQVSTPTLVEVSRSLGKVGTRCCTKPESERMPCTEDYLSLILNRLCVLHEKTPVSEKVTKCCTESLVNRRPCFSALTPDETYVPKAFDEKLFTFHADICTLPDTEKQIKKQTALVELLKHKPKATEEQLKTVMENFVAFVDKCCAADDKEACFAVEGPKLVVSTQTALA
Protocol: Native protein electrophoresis. The interaction between BSA and iridium complexes was studied using native polyacrylamide gel electrophoresis (PAGE). The BSA concentration was 3 µM and the CD/CP ratio was 10. The samples of BSA/Ir-complexes were incubated overnight. The samples were mixed with a sample buffer (glycerol and bromophenol) and loaded into a 10% polyacrylamide gel for PAGE analysis (BioRad electrophoresis accessories). The gel was run at 80 V for 3 h, and then it was stained and destained before the gel was imaged using BioRad Gel Doc XR+ molecular imager. The staining solution contains 45% MeOH, 10% glacial acetic acid, 45% H2O and 0.1% brilliant blue, whereas the destaining solution consists of 20% MeOH, 10% glacial acetic acid and 70% H2O.

Row | SMILES | Resistance Factor (RF) IC50,A2780CIS/IC50,A2780 [1] | IC50 [1] [µM] | IC50 [2] [µM] | IC50 [3] [µM] | Solubility in water (Qualitative solubility; listed as 1[C,NH-Cl]) | Relative viscosity of DNA (L/L0) (Calf thymus DNA) | DHE fluorescence (superoxide anion levels) [4] | Interaction with BSA (BSA) | Solubility in water (Qualitative solubility; listed as 2[C,NMe-Cl]) | Solubility in water (Qualitative solubility; listed as 3[N,NH-Cl]) | Solubility in water (Qualitative solubility; listed as 3[N,NH-Cl]+) | Solubility in water (Qualitative solubility; listed as 4[N,NMe-Cl]) | Solubility in water (Qualitative solubility; listed as 4[N,NMe-Cl]+) | Solubility in water (Qualitative solubility; listed as 5[CNH2,NH-Cl]) | Solubility in water (Qualitative solubility; listed as 5[CNH2,NH-Cl]+) | Solubility in water (Qualitative solubility) | Solubility in water (Qualitative solubility; listed as 7[CO,NH-Cl]) | Solubility in water (Qualitative solubility; listed as 8[CO,S-Cl])
1 | Cc1c(C)c(C)[c-](C)c1C.[Cl][Ir]1[c]2ccccc2-c2[nH]c3ccccc3[n+]21 [1[C,NH], [(η^5-Cp*)IrCl(κ^2-N,C-pbim)]] | no cross-resistance | 5 ± 1 | 5 ± 2 | 10 ± 1 | insoluble in water; also recorded: soluble in DMSO, but not in water | No variations | increased | do not interact with the protein | – | – | – | – | – | – | – | – | – | –
2 | Cc1c(C)c(C)[c-](C)c1C.Cn1c2[n+](c3ccccc31)[Ir]([Cl])[c]1ccccc1-2 [2[C,NMe], [(η^5-Cp*)IrCl(κ^2-N,C-NMepbim)]] | no cross-resistance | 13 ± 1 | – | 10 ± 1 | – | No variations | increased | do not interact with the protein | insoluble in water; also recorded: soluble in DMSO, but not in water | – | – | – | – | – | – | – | – | –
3 | Cc1c(C)c(C)[c-](C)c1C.[Cl-].[Cl][Ir]1[n+]2ccccc2-c2[nH]c3ccccc3[n+]21 [3[N,NH], [(η^5-Cp*)IrCl(κ^2-N,N-pybim)]Cl] | – | 48 ± 1 | 90 ± 1 | > 100 | – | drastically declined | – | interactions | – | soluble in water | water-soluble | – | – | – | – | – | – | –
4 | Cc1c(C)c(C)[c-](C)c1C.Cn1c2[n+](c3ccccc31)[Ir]([Cl])[n+]1ccccc1-2.[Cl-] [4[N,NMe], [(η^5-Cp*)IrCl(κ^2-N,N-pyMebim)]Cl] | – | > 100 | > 100 | > 100 | – | – | – | interactions | – | – | – | soluble in water | water-soluble | – | – | – | – | –
5 | Cc1c(C)c(C)[c-](C)c1C.[Cl-].[Cl][Ir]1[NH2+]c2ccccc2-c2[nH]c3ccccc3[n+]21 [5[CNH2,NH], [(η^5-Cp*)IrCl(κ^2-N,N-apbim)]Cl] | – | 30 ± 1 | 34 ± 1 | > 100 | – | – | – | do not interact with the protein | – | – | – | – | – | soluble in water | water-soluble | – | – | –
6 | Cc1c(C)c(C)[c-](C)c1C.[Cl-].[Cl][Ir]1[NH2+]c2ccccc2-c2sc3ccccc3[n+]21 [6[CNH2,S], [(η^5-Cp*)IrCl(κ^2-N,N-apbtz)]Cl] | – | 48 ± 2 | 40 ± 1 | > 100 | – | – | – | do not interact with the protein | – | – | – | – | – | – | – | water-soluble | – | –
7 | Cc1c(C)c(C)[c-](C)c1C.[Cl][Ir]1[O]c2ccccc2-c2[nH]c3ccccc3[n+]21 [7[CO,NH], [(η^5-Cp*)IrCl(κ^2-O,N-hpbim)]] | > 2 | 42 ± 1 | > 100 | 43 ± 3 | – | – | – | interactions | – | – | – | – | – | – | – | – | insoluble in water; also recorded: soluble in DMSO, but not in water | –
8 | Cc1c(C)c(C)[c-](C)c1C.[Cl][Ir]1[O]c2ccccc2-c2sc3ccccc3[n+]21 [8[CO,S], [(η^5-Cp*)IrCl(κ^2-O,N-hpbtz)]] | > 2 | 6 ± 2 | 34 ± 1 | 41 ± 5 | – | – | increased | interacts with BSA | – | – | – | – | – | – | – | – | – | insoluble in water; also recorded: soluble in DMSO, but not in water
